Structures can show the parent of a compound that is named as a salt. Where two headings read alike, the source gives them in different places.
Assays:
MerTK [1] = molecular target: T1, MerTK (Homo sapiens, UniProt Q12866); assay: MerTk degradation in Jurkat cells (Western blot); format: cell-based; details: 0.001-1 μM, 4 hour-incubation at 37° C., read-out: Jurkat Max % MerTK Degradation
T1 construct: endogenous in cells; host or cells: Jurkat cells
T1 sequence (Q12866 21-999): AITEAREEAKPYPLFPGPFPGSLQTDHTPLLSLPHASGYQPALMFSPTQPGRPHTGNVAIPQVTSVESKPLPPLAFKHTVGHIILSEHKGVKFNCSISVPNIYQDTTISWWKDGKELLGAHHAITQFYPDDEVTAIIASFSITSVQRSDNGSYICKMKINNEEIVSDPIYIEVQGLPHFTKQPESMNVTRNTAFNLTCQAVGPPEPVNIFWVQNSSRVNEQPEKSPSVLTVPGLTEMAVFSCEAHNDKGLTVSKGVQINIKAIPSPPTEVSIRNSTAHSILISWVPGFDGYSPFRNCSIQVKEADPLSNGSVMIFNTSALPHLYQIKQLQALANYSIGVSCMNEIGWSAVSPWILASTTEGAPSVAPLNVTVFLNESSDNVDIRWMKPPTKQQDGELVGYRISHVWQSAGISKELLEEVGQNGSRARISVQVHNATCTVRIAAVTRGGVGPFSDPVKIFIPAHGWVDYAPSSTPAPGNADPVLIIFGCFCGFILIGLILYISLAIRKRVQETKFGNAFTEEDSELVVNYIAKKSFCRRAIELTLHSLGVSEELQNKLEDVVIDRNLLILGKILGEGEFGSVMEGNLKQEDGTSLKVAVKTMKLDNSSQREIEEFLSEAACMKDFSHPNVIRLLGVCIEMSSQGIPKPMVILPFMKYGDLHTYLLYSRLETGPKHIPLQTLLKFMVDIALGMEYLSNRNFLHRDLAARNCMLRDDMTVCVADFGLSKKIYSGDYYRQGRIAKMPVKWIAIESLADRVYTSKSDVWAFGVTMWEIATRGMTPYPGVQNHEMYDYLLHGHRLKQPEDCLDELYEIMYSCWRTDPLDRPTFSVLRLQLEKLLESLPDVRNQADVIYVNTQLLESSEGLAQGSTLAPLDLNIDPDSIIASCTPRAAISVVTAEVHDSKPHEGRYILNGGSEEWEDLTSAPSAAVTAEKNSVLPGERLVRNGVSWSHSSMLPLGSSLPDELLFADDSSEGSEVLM
Summary of the method: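 MerTK degradation was read by near-infrared Western blot, normalized to actin, in BCA-quantified lysates of Jurkat cells exposed to 0.001-1 μM compound for 4 h at 37 °C.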

MerTK [2] = molecular target: T2, MerTK (Mus musculus, UniProt Q60805); assay: MerTK degradation in RAW264 cells (Western blot); format: cell-based; details: RAW264.7, 0.001-1 μM, 4 hour-incubation at 37° C., read-out: RAW264 Max % MerTK Degradation
T2 construct: endogenous in cells; host or cells: RAW264 cells
T2 sequence (Q60805 19-994): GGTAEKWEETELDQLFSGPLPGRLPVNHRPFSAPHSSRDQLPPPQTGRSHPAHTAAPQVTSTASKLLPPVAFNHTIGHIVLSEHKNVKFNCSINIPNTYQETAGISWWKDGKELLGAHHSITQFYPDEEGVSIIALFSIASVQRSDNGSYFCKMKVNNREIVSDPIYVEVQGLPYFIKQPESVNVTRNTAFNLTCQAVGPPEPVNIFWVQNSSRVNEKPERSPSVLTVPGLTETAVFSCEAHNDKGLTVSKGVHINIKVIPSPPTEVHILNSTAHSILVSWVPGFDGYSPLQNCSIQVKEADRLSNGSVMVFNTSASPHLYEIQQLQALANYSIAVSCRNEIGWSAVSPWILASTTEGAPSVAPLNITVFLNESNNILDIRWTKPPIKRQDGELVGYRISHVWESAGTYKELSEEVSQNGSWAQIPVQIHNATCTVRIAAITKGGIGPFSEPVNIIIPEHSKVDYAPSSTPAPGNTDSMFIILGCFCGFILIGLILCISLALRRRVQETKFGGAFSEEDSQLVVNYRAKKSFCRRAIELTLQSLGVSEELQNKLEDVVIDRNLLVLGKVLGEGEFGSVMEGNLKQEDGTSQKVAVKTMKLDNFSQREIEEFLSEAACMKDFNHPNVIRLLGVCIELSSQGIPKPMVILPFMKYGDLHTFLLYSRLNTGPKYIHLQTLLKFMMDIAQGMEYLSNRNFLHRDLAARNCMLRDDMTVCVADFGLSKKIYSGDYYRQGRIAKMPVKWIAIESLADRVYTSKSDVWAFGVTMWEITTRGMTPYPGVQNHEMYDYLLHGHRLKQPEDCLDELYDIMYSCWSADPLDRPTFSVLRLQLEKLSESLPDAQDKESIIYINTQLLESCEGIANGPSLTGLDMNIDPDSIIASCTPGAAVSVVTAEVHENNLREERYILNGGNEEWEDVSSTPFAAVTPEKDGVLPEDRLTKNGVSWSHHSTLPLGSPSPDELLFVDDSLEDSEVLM
Protocol: Compounds were reconstituted in DMSO to make 10 mM stock solutions. RAW264 cells were maintained in DMEM medium containing 10% FBS. Cells were seeded into 6-well plates with 2×10^6 cells per well. 2 μL of diluted compounds were added to cells to the final concentration of 0.001-1 μM. After a 4 hour-incubation at 37° C., cells were washed with DPBS (1×) once. Then RIPA lysis buffer with Halt Protease and Phosphatase Inhibitor Cocktail was added directly to the cells and cells were then incubated on ice for 10 min, then lysate was harvested into 1.5 mL Eppendorf tubes and centrifuged at 14,000 rpm for 10 min at 4° C. and the supernatants were collected for Western blots.
The protein concentration of cell lysates was quantified with Pierce™ BCA Protein Assay Kit. […] BCA working reagents were prepared by mixing BCA reagent A with reagent B in 50: 1 ratio. 200 μL of the BCA working reagents were added to 25 μL of BCA standard or cell lysates in microplate, and mixed thoroughly on a plate shaker for 30 seconds. After incubation at 37° C. for 30 min, the absorbance of samples at 562 nm were measured with EnVision Plate Reader.
Protein lysates were prepared in NuPAGE™ LDS sample buffer and NuPAGE™ sample reducing agent, and incubated at 95° C. for 5 min. […] The proteins were transferred to low fluorescence PVDF membranes using the Trans-Blot Turbo Transfer System. Membranes were then blocked in Odyssey blocking buffer at RT for 1 h followed by primary incubation at 4° C. overnight. The primary antibodies were MerTK goat polyclonal antibody and actin mouse monoclonal antibody. Membranes were washed three times with TBST (1×), and then incubated with IR Dye 800 CW Donkey anti-goat and IR Dye 700 CW Goat anti-mouse secondary antibodies in 1:10,000 dilution at RT for 1 h. The Western blot images were obtained using Odyssey Imaging System.

Row | Dmax (MerTK [2]) [%] | Dmax (MerTK [1]; Jurkat, 4 h) [%] | Compound | Dmax (MerTK [1]) [%]
1 | > 50 | > 50 | CCCCNc1ncc2c(-c3ccc(S(=O)(=O)N4CCN(C(=O)NCCCOCCCOCCCNc5cccc6c5C(=O)N(C5CCC(=O)NC5=O)C6=O)CC4)cc3)nn([C@H]3CC[C@H](O)CC3)c2n1 (stereo partly drawn) [I-19, 4-((4-(6-(Butylamino)-1-(trans-4-hydroxycyclohexyl)-1H-pyrazolo[3,4-d]pyrimidin-3-yl)phenyl)sulfonyl)-N-(3-(3-(3-((2-(2,6-dioxopiperidin-3-yl)-1,3-dioxoisoindolin-4-yl)amino)propoxy)propoxy)propyl)piperazine-1-carboxamide] | 
2 | > 50 | > 50 | CCCCNc1ncc2c(-c3ccc(S(=O)(=O)N4CCN(C(=O)NCCCOCCCNc5cccc6c5C(=O)N(C5CCC(=O)NC5=O)C6=O)CC4)cc3)nn([C@H]3CC[C@H](O)CC3)c2n1 (stereo partly drawn) [I-20, 4-((4-(6-(Butylamino)-1-(trans-4-hydroxycyclohexyl)-1H-pyrazolo[3,4-d]pyrimidin-3-yl)phenyl)sulfonyl)-N-(3-(3-((2-(2,6-dioxopiperidin-3-yl)-1,3-dioxoisoindolin-4-yl)amino)propoxy)propyl)piperazine-1-carboxamide] | 
3 | 20 to 50 | > 50 | CCCCNc1ncc2c(-c3ccc(S(=O)(=O)N4CCN(C(=O)NCCOCCCOCCNc5cccc6c5C(=O)N(C5CCC(=O)NC5=O)C6=O)CC4)cc3)nn([C@H]3CC[C@H](O)CC3)c2n1 (stereo partly drawn) [I-23, 4-((4-(6-(Butylamino)-1-(trans-4-hydroxycyclohexyl)-1H-pyrazolo[3,4-d]pyrimidin-3-yl)phenyl)sulfonyl)-N-(2-(3-(2-((2-(2,6-dioxopiperidin-3-yl)-1,3-dioxoisoindolin-4-yl)amino)ethoxy)propoxy)ethyl)piperazine-1-carboxamide] | 

The remaining lines, values behind:

Row | Compound | Dmax (MerTK [2]) [%] | Dmax (MerTK [1]; Jurkat, 4 h) [%] | Dmax (MerTK [1]) [%]
4 | CCCCNc1ncc2c(-c3ccc(CNCCCOCCCOCCCc4cccc5c4n(C)c(=O)n5C4CCC(=O)NC4=O)cc3)cn([C@H]3CC[C@H](O)CC3)c2n1 (stereo partly drawn) [I-6, Trans-3-[4-[3-(3-[3-[([4-[2-(butylamino)-7-[4-hydroxycyclohexyl]-7H-pyrrolo[2,3-d]pyrimidin-5-yl]phenyl]methyl)amino]propoxy]propoxy)propyl]-3-methyl-2-oxo-2,3-dihydro-1H-1,3-benzodiazol-1-yl]piperidine-2,6-dione] | > 50 |  | > 50
5 | CCCCNc1ncc2c(-c3ccc(S(=O)(=O)N4CCN(CCOCCOCCOCCOCCCc5ccc6c(c5)n(C)c(=O)n6C5CCC(=O)NC5=O)CC4)cc3)cn([C@H]3CC[C@H](O)CC3)c2n1 (stereo partly drawn) [I-12, 3-(5-(1-(4-(4-(2-(Butylamino)-7-(trans-4-hydroxycyclohexyl)-7H-pyrrolo [2,3-d]pyrimidin-5-yl)phenylsulfonyl)piperazin-1-yl)-3,6,9,12-tetraoxapentadecan-15-yl)-3-methyl-2-oxo-2,3-dihydrobenzo[d]imidazol-1-yl)piperidine-2,6-dione] | > 50 | > 50 | 
6 | CCCCNc1ncc2c(-c3ccc(S(=O)(=O)N4CCN(CCOCCOCCOCCOCCCc5cccc6c5n(C)c(=O)n6C5CCC(=O)NC5=O)CC4)cc3)cn([C@H]3CC[C@H](O)CC3)c2n1 (stereo partly drawn) [I-13, 3-[4-[1-(4-[4-[2-(Butylamino)-7-[trans-4-hydroxycyclohexyl]-7H-pyrrolo [2,3-d]pyrimidin-5-yl]benzenesulfonyl]piperazin-1-yl)-3,6,9,12-tetraoxapentadecan-15-yl]-3-methyl-2-oxo-2,3-dihydro-1H-1,3-benzodiazol-1-yl]piperidine-2,6-dione formate] | > 50 | > 50 | 
7 | O=C1CCC(N2C(=O)c3cccc(NCCOCCOCCOCCOCCN4CCN(Cc5ccc(-c6cn([C@H]7CC[C@H](O)CC7)c7nc(NCCC8CC8)ncc67)cc5)CC4)c3C2=O)C(=O)N1 (stereo partly drawn) [I-14, 4-(15-[4-[(4-[2-[(2-Cyclopropylethyl)amino]-7-[trans-4-hydroxycyclohexyl]-7H-pyrrolo[2,3-d]pyrimidin-5-yl]phenyl)methyl]piperazin-1-yl]-4,7,10,13-tetraoxa-1-azapentadecan-1-yl)-2-(2,6-dioxopiperidin-3-yl)-2,3-dihydro-1H-isoindole-1,3-dione formate] | > 50 | > 50 | 
8 | COCCNc1ncc2c(-c3ccc(CN4CCN(CCOCCOCCOCCOCCNc5cccc6c5C(=O)N(C5CCC(=O)NC5=O)C6=O)CC4)cc3)cn([C@H]3CC[C@H](O)CC3)c2n1 (stereo partly drawn) [I-15, 2-(2,6-Dioxopiperidin-3-yl)-4-(15-[4-[(4-[2-[(2-methoxyethyl)amino]-7-[trans-4-hydroxycyclohexyl]-7H-pyrrolo[2,3-d]pyrimidin-5-yl]phenyl)methyl]piperazin-1-yl]-4,7,10,13-tetraoxa-1-azapentadecan-1-yl)-2,3-dihydro-1H-isoindole-1,3-dione diformate] | 20 to 50 | > 50 | 
9 | Cc1ccc(CNc2ncc(-c3ccc(CN4CCN(CCOCCOCCOCCOCCNc5cccc6c5C(=O)N(C5CCC(=O)NC5=O)C6=O)CC4)cn3)c(N[C@H]3CC[C@H](O)CC3)n2)cc1 (stereo partly drawn) [I-21, 2-(2,6-Dioxopiperidin-3-yl)-4-[15-(4-[[6-(2-[[(4-methylphenyl)methyl]amino]-4-[[trans-4-hydroxycyclohexyl]amino]pyrimidin-5-yl)pyridin-3-yl]methyl]piperazin-1-yl)-4,7,10,13-tetraoxa-1-azapentadecan-1-yl]-2,3-dihydro-1H-isoindole-1,3-dione] | 20 to 50 | 20 to 50 | 
